Results as given in article PMC4543428 (European journal of pharmacology, 2015).
Structures can show the parent of a compound that is named as a salt. Where two headings read alike, the source gives them in different places.

Key:
[1] = molecular target: T1, sigma1 receptor (Mus musculus, UniProt O55242); assay: biochemical
[2] = molecular target: T2, sigma2 receptor (Mus musculus, UniProt Q8VD00); assay: Sigma2 receptor competition binding against [3H]DTG /; settings: for Sigma2 nH (pseudo-Hill slope): 3.0 nM [3H]DTG / 500 nM (+)-pentazocine, 60 min, 25 °C; for Selectivity Ki Ratio σ2/σ1: sigma2 Ki / sigma1 Ki
T2 sequence (Q8VD00 1-176): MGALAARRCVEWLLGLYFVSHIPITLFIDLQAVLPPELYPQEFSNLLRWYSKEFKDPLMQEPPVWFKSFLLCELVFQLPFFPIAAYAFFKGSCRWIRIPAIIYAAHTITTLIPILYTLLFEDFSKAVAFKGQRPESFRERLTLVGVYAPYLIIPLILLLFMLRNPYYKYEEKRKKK

[3] = molecular target: T1, sigma1 receptor; settings: for Sigma1 nH (pseudo-Hill slope): 1.0 nM [3H](+)-pentazocine, 6 h, 37 °C
[4] = molecular target: T1, sigma1 receptor; assay type: in vivo; settings: for ED50: mouse, ip
[5] = test system: sigma2 receptor; assay: [3H]DTG association kinetics and homologous; assay type: binding, mouse; settings: 25 °C; 3.0 nM; 500 nM (+)-pentazocine

T1 sequence (O55242 whole entry): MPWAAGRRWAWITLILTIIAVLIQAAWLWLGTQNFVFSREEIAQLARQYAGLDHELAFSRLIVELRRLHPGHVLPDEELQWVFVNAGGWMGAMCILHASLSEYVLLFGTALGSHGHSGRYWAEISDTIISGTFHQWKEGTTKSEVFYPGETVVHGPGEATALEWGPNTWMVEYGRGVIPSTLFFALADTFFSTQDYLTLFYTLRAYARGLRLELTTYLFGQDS

| Molecule | Ki [1] [µM] | Sigma2 nH (pseudo-Hill slope) ([2]; mouse lung membranes) | Selectivity Ki Ratio σ2/σ1 ([2]; mouse lung membranes) | Sigma1 nH (pseudo-Hill slope) ([3]; mouse lung membranes) | further results |
| --- | --- | --- | --- | --- | --- |
| CC(C(O)c1ccc(O)cc1)N1CCC(Cc2ccccc2)CC1 (stereo not drawn) [Ifenprodil, ifenprodil (+)-tartrate] | 0.0164 ± 0.00189 | 0.88 ± 0.10 | 0.1 | 1.06 ± 0.11 | IC50 [2]: 0.0024 ± 0.00027 µM; Ki [2]: 0.00218 ± 0.00024 µM |
| COc1ccc2c(c1)[C@]13CCCC[C@@H]1[C@H](C2)N(C)CC3 [Dextromethorphan, dextromethorphan hydrobromide] | 0.0717 ± 0.00656 | 1.22 ± 0.12 | 58 | 0.86 ± 0.12 | IC50 [2]: 4.51 ± 0.714 µM; Ki [2]: 4.2 ± 0.664 µM; sigma1 receptor occupancy across tissues at higher doses ([4]; 31.6 – 100 µmol / kg (12 – 37 mg / kg)): fully occupied; ED50 ([4]; read-out: ED50, inhibition of specific radioligand binding in heart): 1.2 µmol/kg; ED50 ([4]; read-out: ED50, inhibition of specific radioligand binding in lung): 1.2 µmol/kg; ED50 ([4]; read-out: ED50, inhibition of specific radioligand binding in spleen): 3.5 µmol/kg; ED50 ([4]; read-out: ED50 values, range across lung, heart, spleen and brain): 1.1 to 4.4 µmol/kg; ED50 ([4]; read-out: ED50 values, range across tissues): 0.4 to 1.6 mg/kg; ED50 ([4]; read-out: lung ED50): 0.4 mg/kg; Hill slope in the presence of phenytoin ([3]; phenytoin 1.0 mM in NaOH vehicle, mouse lung membranes): 1.2 ± 0.2; shift to higher apparent sigma1 affinity caused by phenytoin ([3]; phenytoin 1.0 mM, mouse lung membranes): 5 fold; Hill slope with vehicle only ([3]; vehicle only (50 µL, 0.15 M NaOH), mouse lung membranes): 1.3 ± 0.2 |
| Cc1ccc2c(c1)C1CN(C)CCC1N2C(=O)CSc1nnnn1-c1ccc(Cl)cc1 (stereo not drawn) [AG-205, Z-2-[[1-(4-chlorophenyl)-1H-tetrazol-5-yl]thio]-1-(1,2,3,4,4a,9b-hexahydro-2,8-dimethyl-5H-pyrido[4,3-b]indol-5-yl)ethanone] |  | 1.06 ± 0.20 | 0.07 | 1.11 ± 0.12 | higher apparent affinity for sigma2 sites over sigma1 sites ([2]; mouse lung membranes, from Ki values): 14 fold; residual specific [3H](+)-pentazocine binding at highest concentration ([3]; 0.02 M, the highest concentration used): approximately 10% |
| (−)-cocaine hydrochloride |  | 0.93 ± 0.09 |  |  |  |
| Cc1ccccc1NC(=N)Nc1ccccc1C [DTG, 1,3-di(2-tolyl)guanidine] | 0.0752 ± 0.00801 | 0.90 ± 0.16 |  | 1.21 ± 0.09 |  |
| COc1ccc(CCN2CCN(C/C=C/I)CC2)cc1OC [[^125I]E-IA-DM-PE-PIPZE, E-N-1-(3´-iodoallyl)-N´-4-(3´´,4´´-dimethoxyphenethyl)-piperazine] |  |  |  |  | specific binding in vivo in brain ([4]; mouse brain, non-specific defined by BD1063): 85%; specific binding in vivo in heart ([4]; mouse heart, non-specific defined by BD1063): 50%; specific binding in vivo in lung ([4]; mouse lung, non-specific defined by BD1063 5.0 µmol / kg i.v.): 68%; specific binding in vivo in spleen ([4]; mouse spleen, non-specific defined by BD1063): 66% |
| C=CCN1CCC2(C)c3cc(O)ccc3CC1C2C (single isomer, unassigned; (+)) [(+)-NANM, (+)-N-allylnormetazocine] |  | 1.63 ± 0.35 | 1162 | 1.04 ± 0.10 |  |
| Cc1ccccc1NC(=N)Nc1ccccc1C [[^3H]DTG, [^3H]1,3-di(2-tolyl)guanidine] |  |  |  |  | time to steady state of specific binding [5]: ≤ 2 min |
| C=CCN1CCC2(C)c3cc(O)ccc3CC1C2C (single isomer, unassigned; (-)) [(−)-NANM, (−)-N-allylnormetazocine] |  | 0.85 ± 0.09 | 2.0 | 1.48 ± 0.28 |  |
